Assay results published in patent publication US10724072B2, “Use of phospho-Akt as a biomarker of drug response” (Basilea Pharmaceutica AG, priority 2011, dated 2020).

Tests used:
Type in all cases: cell-based, human
LXFE 211 = assay: Colony outgrowth assay, patient-derived lung tumour xenograft cells; design: key to Response to BAL27862 / Response to vinblastine: BAL27862-sensitive tumour cells were those that had IC70 values in the low nanomolar range; BAL27862-resistant tumour cells had IC70 values >600 nanomolar; settings: LXFE 211, ex vivo colony outgrowth
Experimental: (§1) Single cell suspensions of patient-derived tumour xenografts (maintained in nude mice) were prepared. For colony outgrowth assays, cells were plated in soft agar in 24-well plates according to the assay introduced by Hamburger & Salmon (Primary bioassay of human tumour stem cells, Science, 1977, 197:461-463). 2×10^4-6×10^4 cells in 0.2 mL medium containing 0.4% agar were plated out on a bottom layer of 0.75% agar. Test compounds were applied in 0.2 mL culture medium. Every 24-well plate contained untreated controls and samples in triplicates. Cultures were incubated at 37° C. and 7.5% CO2 for 5-28 days. 24 hours prior to analysis, vital colonies were stained with a solution of metabolizable tetrazolium salt (Alley M C et al, Life Sci. 1982, 31:3071-3078) and were counted with an automatic image analysis system (Omnicon 3600, Biosys GmbH).
(§2) Relative drug effects were expressed by the ratio of the mean number of colonies in the treated wells and the control wells. IC70-values were determined by plotting compound concentrations versus relative colony counts.
(§3) Based on colony outgrowth assays, using tumour cells derived from 8 patient-derived tumours maintained as xenografts in mice, BAL27862-sensitive or resistant tumour cells were identified from gastric cancer, colorectal cancer, melanoma, and lung cancer (see Table 1). In this table, BAL27862-sensitive tumour cells were those that had IC70 values in the low nanomolar range, while BAL27862-resistant tumour cells had IC70 values >600 nanomolar. Paclitaxel and vinblastine data, using the same ex vivo assay, was available for 7 of the 8 tumour models. Of these 7 models, all were resistant to treatment with paclitaxel, while 6 were sensitive to treatment with vinblastine.

GFX 251 = assay: Colony outgrowth assay, patient-derived gastric tumour xenograft cells; design: key to Response to vinblastine / Response to BAL27862: BAL27862-sensitive tumour cells were those that had IC70 values in the low nanomolar range; BAL27862-resistant tumour cells had IC70 values >600 nanomolar; settings: GFX 251, ex vivo colony outgrowth
Experimental: as §1, §2, §3

CXF 1103 = assay: Colony outgrowth assay, patient-derived colorectal cancer xenograft cells; design: key to Response to BAL27862: BAL27862-sensitive tumour cells were those that had IC70 values in the low nanomolar range; BAL27862-resistant tumour cells had IC70 values >600 nanomolar; settings: CXF 1103, ex vivo colony outgrowth
Experimental: as §1, §2, §3

CXF 243 = assay: as above; design: key to Response to vinblastine: BAL27862-sensitive tumour cells were those that had IC70 values in the low nanomolar range; BAL27862-resistant tumour cells had IC70 values >600 nanomolar; settings: CXF 243, ex vivo colony outgrowth
Experimental: as §1, §2, §3

MEXF 276 = assay: Colony outgrowth assay, patient-derived melanoma xenograft cells; design: key to Response to vinblastine: BAL27862-sensitive tumour cells were those that had IC70 values in the low nanomolar range; BAL27862-resistant tumour cells had IC70 values >600 nanomolar; settings: MEXF 276, ex vivo colony outgrowth
Experimental: as §1, §2, §3

GFX 97 = assay: Colony outgrowth assay, patient-derived gastric tumour xenograft cells; design: key to Response to vinblastine: BAL27862-sensitive tumour cells were those that had IC70 values in the low nanomolar range; BAL27862-resistant tumour cells had IC70 values >600 nanomolar; settings: GFX 97, ex vivo colony outgrowth
Experimental: as §1, §2, §3

MEXF 1341 = assay: Colony outgrowth assay, patient-derived melanoma xenograft cells; design: key to Response to BAL27862 / Response to vinblastine: BAL27862-sensitive tumour cells were those that had IC70 values in the low nanomolar range; BAL27862-resistant tumour cells had IC70 values >600 nanomolar; settings: MEXF 1341, ex vivo colony outgrowth
Experimental: as §1, §2, §3

LXFE 397 = assay: Colony outgrowth assay, patient-derived lung tumour xenograft cells; settings: LXFE 397, ex vivo colony outgrowth
Experimental: as §1, §2
Based on colony outgrowth assays, using tumour cells derived from 8 patient-derived tumours maintained as xenografts in mice, BAL27862-sensitive or resistant tumour cells were identified from gastric cancer, colorectal cancer, melanoma, and lung cancer (see Table 1). […]

[1] = system: HeLa cervical cancer cells; assay: Immunofluorescent staining of microtubules (anti-alpha-tubulin) in cultured cells; settings: 50 nM, 24 hours treatment
Experimental: (§4) A549 human non-small cell lung cancer (NSCLC, ATCC reference number CCL-185) cells, HeLa cervical cancer cells (ATCC reference number CCL-2) and SKBR3 breast carcinoma cells (ATCC reference number HTB-30) were seeded at densities of 50% on round microscope coverslips and cultured for 24 hours in RPMI-1640 containing 10% FCS (also referred to as FBS) at 37° C., 5% CO2. Compounds to be tested were dissolved in DMSO. The cell culture medium was replaced with medium containing the diluted compound(s) (paclitaxel, vinblastine, colchicine and nocodazole were purchased from Sigma-Aldrich) or vehicle. After treatment for the times indicated in the Brief Description of the Figures, coverslips were washed and cells were fixed in methanol/acetone (1:1) for 5 minutes at room temperature and subsequently incubated in blocking buffer (0.5% BSA and 0.1% TX-100 in PBS) for 30 minutes at room temperature. Specimens were then incubated with anti-alpha-tubulin antibody (Sigma, 1:2000) for 1 hour at room temperature in blocking buffer. After several washing steps cells were incubated with AlexaFluor-488 goat-anti-mouse IgG (Molecular Probes, 1:3000) for 1 hour at room temperature followed by several washing steps with blocking buffer. Specimens were then mounted with ProLong Gold antifade (Molecular Probes), sealed with nail polish and examined with a Leica immunofluorescence microscope. Images were captured with a cooled CCD-camera and processed by ImageJ software.

A549 NSCLC cells = assay: as above; settings: for Microtubule phenotype of mitotic or G2/M arrested cells: 24 hours treatment; for Effect on microtubule phenotype induced by BAL27862: 24 hours BAL27862 with the final 4 hours including the agent
Experimental: as §4

[2] = system: SKBR3 breast cancer cells; assay: as above; settings: SKBR3, 50 nM, 24 hours treatment
Experimental: as §4

In the case of N#CCCNc1nonc1-c1nc2ccccc2n1CC(=O)c1ccc(N)cc1 [BAL27862, 3-(4-{1-[2-(4-Amino-phenyl)-2-oxo-ethyl]-1H-benzoimidazol-2-yl}-furazan-3-ylamino)-propionitrile], the “IC70 BAL27862” value (LXFE 211) is reported as 21 nM, the “Response to BAL27862” value (LXFE 211) is reported as “sensitive” and the “IC70 BAL27862” value (GFX 251) is reported as 485 nM. The “Response to BAL27862” value (GFX 251) was “sensitive”, the “IC70 BAL27862” value (CXF 1103) was 22 nM and the “Response to BAL27862” value (CXF 1103) was “sensitive”. For the same compound, the “IC70 BAL27862” value (CXF 243) was 696 nM, the “Response to BAL27862” value (CXF 243) was “resistant (BAL27862-resistant tumour cells had IC70 values >600 nanomolar)” and the “IC70 BAL27862” value (MEXF 276) was over 3500 nM. For the same compound, the “Response to BAL27862” value (MEXF 276) was “resistant (BAL27862-resistant tumour cells had IC70 values >600 nanomolar)”, the “IC70 BAL27862” value (GFX 97) was over 3500 nM and the “Response to BAL27862” value (GFX 97) was “resistant (BAL27862-resistant tumour cells had IC70 values >600 nanomolar)”. The “IC70 BAL27862” value (MEXF 1341) was 25 nM, the “Response to BAL27862” value (MEXF 1341) was “sensitive” and the “IC70 BAL27862” value (LXFE 397) was over 3500 nM. For the same compound, the “Response to BAL27862” value (LXFE 397) was “resistant (BAL27862-resistant tumour cells had IC70 values >600 nanomolar)”, the “Microtubule phenotype of mitotic or G2/M arrested cells” value [1] was “dot-like structures” and the “Microtubule phenotype of mitotic or G2/M arrested cells” value (A549 NSCLC cells; A549, 50 nM) was “dot-like structures”. The “Effect on microtubule phenotype induced by conventional microtubule targeting agents” value (A549 NSCLC cells; A549, 24 hours vinblastine, colchicine, paclitaxel or nocodazole with the final 4 hours including BAL27862) was “disruption of the microtubule structures” and the “Microtubule phenotype of mitotic or G2/M arrested cells” value [2] was “dot-like structures”.

In the case of Nc1ccc(C(=O)Cn2c(-c3nonc3N)nc3ccccc32)cc1 [Compound B, 2-[2-(4-Amino-furazan-3-yl)-benzoimidazol-1-yl]-1-(4-amino-phenyl)-ethanone], the “Microtubule phenotype of mitotic or G2/M arrested cells” value (A549 NSCLC cells; A549, 80 nM) is reported as “dot-like structures”.

With N#CCCNc1nonc1-c1nc2ccccc2n1CC(=O)c1ccc(N)nc1 [Compound C, 3-(4-{1-[2-(6-Amino-pyridin-3-yl)-2-oxo-ethyl]-1H-benzoimidazol-2-yl}-furazan-3-ylamino)-propionitrile] the “Microtubule phenotype of mitotic or G2/M arrested cells” value (A549 NSCLC cells; A549, 20 nM) was “dot-like structures”.

COc1cc2c(c(OC)c1OC)-c1ccc(OC)c(=O)cc1[C@@H](NC(C)=O)CC2 [colchicine, reference compound] was tested, and the “Effect on microtubule phenotype induced by BAL27862” value (from here on “Effect … by BAL27862”) (A549 NSCLC cells; A549) was “no impact”.

With COC(=O)Nc1nc2ccc(C(=O)c3cccs3)cc2[nH]1 [nocodazole, reference compound] the “Effect … by BAL27862” value (A549 NSCLC cells; A549) was “no impact”.

For CC(=O)O[C@H]1C(=O)[C@@]2(C)[C@H]([C@H](OC(=O)c3ccccc3)[C@]3(O)C[C@H](OC(=O)[C@H](O)[C@@H](NC(=O)c4ccccc4)c4ccccc4)C(C)=C1C3(C)C)[C@]1(OC(C)=O)CO[C@@H]1C[C@@H]2O [paclitaxel, reference compound], the Response to paclitaxel (LXFE 211) was “resistant (BAL27862-resistant tumour cells had IC70 values >600 nanomolar)”, the Response to paclitaxel (GFX 251) was “resistant (BAL27862-resistant tumour cells had IC70 values >600 nanomolar)” and the Response to paclitaxel (CXF 1103) was “resistant (BAL27862-resistant tumour cells had IC70 values >600 nanomolar)”. For the same compound, the Response to paclitaxel (CXF 243) was “resistant (BAL27862-resistant tumour cells had IC70 values >600 nanomolar)”, the Response to paclitaxel (MEXF 276) was “resistant (BAL27862-resistant tumour cells had IC70 values >600 nanomolar)” and the Response to paclitaxel (GFX 97) was “resistant (BAL27862-resistant tumour cells had IC70 values >600 nanomolar)”. The Response to paclitaxel (MEXF 1341) was “resistant (BAL27862-resistant tumour cells had IC70 values >600 nanomolar)” and the “Effect … by BAL27862” value (A549 NSCLC cells; A549) was “no impact”.

CC[C@]1(O)C[C@@H]2CN(CCc3c([nH]c4ccccc34)[C@@](C(=O)OC)(c3cc4c(cc3OC)N(C)[C@H]3[C@@](O)(C(=O)OC)[C@H](OC(C)=O)[C@]5(CC)C=CCN6CC[C@]43[C@@H]65)C2)C1 [vinblastine, reference compound] was tested, and the Response to vinblastine (LXFE 211) was “sensitive”, the Response to vinblastine (GFX 251) was “sensitive” and the Response to vinblastine (CXF 1103) was “resistant (BAL27862-resistant tumour cells had IC70 values >600 nanomolar)”. For the same compound, the Response to vinblastine (CXF 243) was “sensitive”, the Response to vinblastine (MEXF 276) was “sensitive” and the Response to vinblastine (GFX 97) was “sensitive”. The Response to vinblastine (MEXF 1341) was “sensitive” and the “Effect … by BAL27862” value (A549 NSCLC cells; A549) was “no impact”.
